Experiments:
Type in all cases: cell-based
IL-8 = assay: Neutrophil Chemokine Production Assay: IL-8; conditions: human neutrophils, 12 h
Method: (§1) A volume 25 mL of human blood was layered over 15 mL of Histopaque®-1077 and centrifuged at 500 g, R^T, for 30 min with no break applied to the centrifuge. The PBMC band and Histopaque®-1077 layer were removed leaving behind the bottom red layer which was mixed with 40 mL of 1× red blood cell (RBC) lysis buffer (Sigma-Aldrich) was and split into two 50 mL tubes. The volume for both fractions was brought to 50 mL with RBC lysis buffer, mixed by inversion, and then incubated at RT for 10 min. Solutions were centrifuged at 250 g, for 10 min at RT and the supernatant liquids removed. The reddish pellets were re-suspended in 1 mL of RBC lysis buffer and combined. The cell suspension was incubated for 5 min at RT in RBC lysis buffer. After incubation 45 mL of Hanks Balanced Salt Solution with no calcium, magnesium or phenol red (HBSS—) was added, the cell suspension was spun (250 g for 10 min at RT), and supernatant liquids were removed. The white pellet was re-suspended in 1 mL of HBSS—, and cell counts were determined. The neutrophil cell suspension was brought to a concentration of 1.11e6 cells/mL in RPMI complete (Sigma-Aldrich), and 180 μL of cell suspension was transferred to all wells within a sterile 96-well tissue culture treated plate resulting in 2.0×10^5 cells/well. […] After incubation, 10 μL of 2 μg/mL LPS solution in RPMI complete was added to each well except for control wells, which received an additional 10 μL of media. Cells were incubated for 12 h (37° C., 5% CO2), after which plates were centrifuged at 250 g, RT, for 5 min and supernatant liquids were obtained and stored at −80° C. until analyzed via Luminex® Multiplex Assay for various chemokines and cytokines. Three data points were acquired from two different blood donors and averaged.

MIP-1α = assay: Neutrophil Chemokine Production Assay: MIP-1α; conditions: human neutrophils, 12 h
Method: as §1

MIP-1β = assay: Neutrophil Chemokine Production Assay: MIP-1β; conditions: human neutrophils, 12 h
Method: as §1

Caco-2 colonocytes = assay: Human Caco-2 Barrier Integrity Assay, Study 1; conditions: Caco-2, + cytokines (TNFα, IFNγ, IL-1β), 48 hours
Method: Caco-2 colonocytes were maintained at 37° C. and 5% CO2 in Dulbecco's Modified Eagle Medium (DMEM) and supplemented with 10% FBS, 1% NEAA, 1% penicillin-streptomycin. At 70-80% confluency, cells were trypsinized and seeded in 0.4 cm^2 transwell collagen I coated membranes with supplemented DMEM in both apical and basolateral compartments. […] After 48 hours, TEER readings were taken again and viability was measured by CellTiter 96® AQueous One Solution Cell Proliferation Assay (Promega).

naïve CD4+ T cells = assay: Human Regulatory T Cell Differentiation Assay; conditions: 6 days; for Cell viability % DMSO: viability dye; for activity at 500 µM: IL-2, 0.5 mM
Method: Peripheral blood mononuclear cells (PBMCs) from whole blood donated by health volunteers were separated by Ficoll-Paque gradient centrifugation and naïve CD4^+ T cells were subsequently isolated using magnet beads (EasySep™ Human Naïve CD4^+ T Cell Isolation Kit, Cambridge, Mass.). For regulatory T cell (Treg) differentiation assay, naïve CD4^+ T cells were cultured (1-10×10^4 cells) in CTS OpTmizer medium for 6 days and stimulated with 5 ng/ml TGF-β, 100 U/ml IL-2, and ImmunoCult™ Human […] T Cell Activator; Stemcell #10990) with/without our Compounds. Cell viability was determined using a viability dye (eBioscience Fixable Viability Dye eFluor 780: ThermoFisher 65-0865-14) at 1:500 dilution. The cells were gated for Treg, defined as Live, CD11c^−, CD14^−, CD19^−, CD8^−, CD4^+, CD3^+, CD25^+, FOXP3^+. Percent (%) Tregs were calculated as percentage of CD4^+, CD25^+, FOXP3^+ cells over total CD4^+ T cells. Statistical analysis was performed with GraphPad Prism Software Using One-Way ANOVA.

TNFα = assay: Cytokine Release from Human PBMCs: TNFα; conditions: LPS, 24 hours, Concentration 100 μM
Method: (§2) Human donor blood (8 mL) was collected in sodium citrate CPT tubes and centrifuged at 1,600×g for 20 minutes at room temperature. Buffy coat containing PBMCs was collected and transferred to a 50 mL conical tube containing 30 mL of RPMI-1640 medium at room temperature (supplemented with penicillin-streptomycin). PBMCs samples were centrifuged at 400×g for 10 minutes at 10° C. The pelleted PBMCs were washed twice in 10 ml of RPMI-1640 medium (supplemented with penicillin-streptomycin), then resuspended in RPMI-1640 medium (supplemented with penicillin-streptomycin, fetal bovine serum, and L-Glutamine). PBMCs were filtered through a 70 micron mesh to remove any cellular debris. […] PBMCs in a 96-well plate were rested for 30 minutes in a 37° C., 5% CO2 incubator, then subsequently treated with 10 μI of indicated compound. After 2 hours 10 μL of LPS (0111:64) 1 mg/mL was added to test wells. After 24 hours of incubation at 37° C., 5% CO2, 100 μL of cell supernatant was collected and transferred to a 96-well plate (non-tissue treated, flat bottom). The plate was centrifuged at 350×g for 5 minutes at room temperature, and then the clear supernatant transferred to a new 96-well plate (non-tissue treated, flat bottom). The remaining cells were tested for viability using CellTiter-Glo® Luminescent Cell Viability Assay (Promega). The supernatant was analyzed for TNFα, IL-6 and IL-1β (kit […] Systems), using Luminex Immunoassay Technology (MAGPIX System).

IL-6 = assay: Cytokine Release from Human PBMCs: IL-6; conditions: LPS, 24 hours, Concentration 100 μM
Method: as §2

IL-1β = assay: Cytokine Release from Human PBMCs: IL-1β; conditions: LPS, 24 hours, Concentration 100 μM
Method: as §2

[1] = Homo sapiens, 144 h, TGF-β, read-out: Treg induction % DMSO

Row | SMILES | % IL-8 (Vehicle + LPS = 100%) (IL-8; Conc. 500.0 μM) | % MIP-1α (Vehicle + LPS = 100%) (MIP-1α; Conc. 500.0 μM) | % MIP-1β (DMSO + LPS = 100%) (MIP-1β; Conc. 500.0 μM) | Cell viability % DMSO (naïve CD4+ T cells; 0.5 mM) | activity at 500 µM (naïve CD4+ T cells; [1]) [%] | TNFα % of DMSO control (TNFα) | IL6 % DMSO control (IL-6) | IL1β % DMSO control (IL-1β) | % IL-8 (Vehicle + LPS = 100%) (IL-8; Conc. 1000.0 μM) | % MIP-1α (Vehicle + LPS = 100%) (MIP-1α; Conc. 1000.0 μM) | % MIP-1β (DMSO + LPS = 100%) (MIP-1β; Conc. 1000.0 μM) | other results
1 | C[C@@H](O)CCO [(R) 1,3-butanediol] | − (− = >90% Vehicle) | − (− = >90% Vehicle) | + (+ = <90% Vehicle) | = (90% > <110%: =) | 90 to 110 | = ((=) 90% > <110% DMSO) | = ((=) 90% > <110% DMSO) | = ((=) 90% > <110% DMSO) | – | – | – | % IL-8 (Vehicle + LPS = 100%) (IL-8; Conc. 100.0 μM): − (− = >90% Vehicle); % MIP-1α (Vehicle + LPS = 100%) (MIP-1α; Conc. 100.0 μM): − (− = >90% Vehicle); % MIP-1β (DMSO + LPS = 100%) (MIP-1β; Conc. 100.0 μM): + (+ = <90% Vehicle); % Change in TEER from DMSO (Caco-2 colonocytes; 100 μM): − (<125%: −); % Change in TEER from DMSO (Caco-2 colonocytes; 0.5 mM): − (<125%: −); Cell viability % DMSO (naïve CD4+ T cells; 100 μM): = (90% > <110%: =); activity at 100 µM (naïve CD4+ T cells; Homo sapiens, 144 h, TGF-β, IL-2, 100 μM, read-out: Treg induction % DMSO): 90 to 110%
2 | O=C[C@H](O)[C@@H](O)[C@@H](O)CO [L-arabinose] | − (− = >90% Vehicle) | − (− = >90% Vehicle) | − (− = >90% Vehicle) | = (90% > <110%: =) | 90 to 110 | + ((+) 50% > <90% DMSO) | + ((+) 50% > <90% DMSO) | = ((=) 90% > <110% DMSO) | − (− = >90% Vehicle) | − (− = >90% Vehicle) | − (− = >90% Vehicle) | Cell viability % DMSO (naïve CD4+ T cells; 1 mM): = (90% > <110%: =); activity at 1000 µM (naïve CD4+ T cells; Homo sapiens, 144 h, TGF-β, IL-2, 1 mM, read-out: Treg induction % DMSO): 90 to 110%
3 | CC(=O)O [acetate] | − (− = >90% Vehicle) | + (+ = <90% Vehicle) | + (+ = <90% Vehicle) | – | – | = ((=) 90% > <110% DMSO) | = ((=) 90% > <110% DMSO) | = ((=) 90% > <110% DMSO) | − (− = >90% Vehicle) | ++ (++ = <70% Vehicle) | + (+ = <90% Vehicle) | % IL-8 (Vehicle + LPS = 100%) (IL-8; Conc. 3000.0 μM): +++ (+++ = <50% Vehicle); % MIP-1α (Vehicle + LPS = 100%) (MIP-1α; Conc. 3000.0 μM): +++ (+++ = <50% Vehicle); % MIP-1β (DMSO + LPS = 100%) (MIP-1β; Conc. 3000.0 μM): +++ (+++ = <50% Vehicle); % Change in TEER from DMSO (Caco-2 colonocytes; 1 mM): − (<125%: −); % Change in TEER from DMSO (Caco-2 colonocytes; 3 mM): − (<125%: −)

Source: US20210299079A1, “MONOMETHYL FUMARATE-CARRIER CONJUGATES AND METHODS OF THEIR USE” (Flagship Pioneering Innovations V, Inc., priority 2018, published 2021)
